Reference: patent publication US20020035131A1, “Regimen and kit for amelioration of premature ejaculation” (Pentech Pharmaceuticals, Inc., priority 1999, published 2002)
Several values for one entry are separate records, joined by “and”; a condition that tells them apart may be missing. Equal values may be shown once.

What was measured:
[1] = tested on: normally potent male patients suffering from premature ejaculation; assay: Example 1 prospective study: ejaculatory latency time (ELT) and frequency of intercourse, dose conversion and continual maintenance regimens; type: in vivo, human; settings: for mean ELT after treatment: from a mean ELT of less than one minute
Procedure: The term “premature ejaculation” as used herein refers to ejaculation that occurs within 60 seconds of vaginal intromission. […] The patients were selected on the basis of a having baseline pretreatment ejaculation latency time (“ELT”) of less than about two minutes. An ELT of less than one minute was regarded as severe premature ejaculation dysfunction. In contrast, the average ELT of a normally potent person is about three to about four minutes. The baseline ELT of the patient was determined as the mean of measurements at a minimum of two acts of sexual intercourse prior to commencing treatment using a stopwatch operated by the patient. […] The term “acute” with respect to the dosing means that the patient ingested an oral dose of paroxetine daily after breakfast or lunch for a period of at least one week. The patients were supplied with an ejaculation diary and were asked to record their frequency of coitus, quality of erection and orgasm, and to record their ELT using a stopwatch. The patients were required to attempt coitus on at least two occasions each week at home. In some trials, the patient's partner was also instructed on the use of the stopwatch and asked to record their recollection of the timing of the patient's ejaculation. […] All patients in the study group were heterosexual, had no other sexual disorders and were either married or in a stable relationship. […] The mean age of the 94 patients was 39 years (range 18-61 years). […] Vital signs, such as heart rate, blood pressure and the like were also monitored by the Registered Nurse. […] Of the group, 55 men (59%) had lifelong premature ejaculation, with the remaining 39 men (41%) describing acquired premature ejaculation with previous acceptable ejaculatory control. Of the 55 men with lifelong premature ejaculation, 10 men (18%) had severe lifelong premature ejaculation and had never achieved intravaginal ejaculation. The patients in the study were enrolled into two groups, Group A and Group B. […] Each patient was supplied with an ejaculation diary and instructed to record their frequency of coitus, quality of erection and orgasm, and to measure and record their ejaculatory latency time using a stop-watch. The patients were required to attempt coitus on at least two occasions each week. Statistical analysis: A Student's t-test was used to compare the mean ELT values before and after treatment with paroxetine for each of Groups A and B.

[2] = tested on: normally potent male patients suffering from premature ejaculation; assay: Example 1: incidence of adverse effects; type: in vivo, human
Description: All patients in the study group were heterosexual, had no other sexual disorders and were either married or in a stable relationship. The baseline pre-treatment ELT for the group, determined as the mean of measurements from a minimum of two acts of sexual intercourse was 2.2 (range 2-3) as reported by patients prior to commencement of the study using a stop watch operated by the patients.
Each patient was supplied with an ejaculation diary and instructed to record their frequency of coitus, quality of erection and orgasm, and to measure and record their ejaculatory latency time using a stop-watch. The patients were required to attempt coitus on at least two occasions each week.

[3] = tested on: healthy men with a diagnosis of premature ejaculation (PE); assay: Example 4: double-blind, randomized, parallel safety and efficacy study, 6, 9 and 12 mg capsules; type: in vivo, human; settings: for Time to Ejaculate, Mean Time (minutes), Reported By Partner / Time to Ejaculate, Range (minutes), Reported By Partner / Time to Ejaculate, Mean Time (minutes), Reported By Patient / Time to Ejaculate, Range (minutes), Reported By Patient: after 6 weeks treatment, baseline latency ≦ 2 minutes, preliminary data; for Time to Ejaculate, Mean Time (minutes), Reported By Partner / Time to Ejaculate, Range (minutes), Reported By Partner: n 23; for Reason for Early Termination: AE (Adverse Experience), patients: 6, 9 and 12 mg capsules combined
Procedure: A double-blind, randomized, parallel safety and efficacy study was conducted at six clinical sites, A-F. […] The study consisted of a screening period, baseline period, and two treatment periods. The patients who completed the study participated for about nine weeks. The patients selected were healthy men between the ages of 21 and 65 years with a diagnosis of premature ejaculation (PE). Patients who met the selection criteria provided a medical history and submitted to psychosexual and physical examinations at screening. The efficacy of the paroxetine capsules was assessed at each visit. Safety was assessed by physical examinations and adverse experience (AE) reports, if any, were collected throughout the study. A post-treatment physical assessment was performed at the final visit. Qualified patients who were admitted to this study were assigned an identification number in sequential order by enrollment. […] There were a total of about eighteen patients per dose/per site. […] The capsule was to be taken one hour after breakfast or within two hours of awakening.

[4] = cited from earlier work
dopamine receptors = settings: unlike sertraline; cited from earlier work
[5] = tested on: central β-adrenergic receptors; settings: unlike sertraline; cited from earlier work
P450 2D6 enzyme = P450 2D6 enzyme (Homo sapiens, UniProt P10635); settings: cited from earlier work
[6] = Group A-Phase 2: 20 mg continual maintenance dose 3-4 hours prior to intercourse, further four weeks after Phase 1, 53 men
[7] = Group A-Phase 2: 20 mg continual maintenance, the 36/53 patients
[8] = Group B: 20 mg continual maintenance dose only, 3-4 hours prior to intercourse, four weeks, 33 men
[9] = Group B: solely 20 mg continual maintenance, the 14/33 responders
[10] = Group B: solely 20 mg continual maintenance, the 19/33 non-responders
[11] = Group A-Phase 1: 20 mg acute daily dosing
[12] = Group A-Phase 1: 20 mg acute daily dosing, 61 patients

Chain of P450 2D6 enzyme (P10635 whole entry): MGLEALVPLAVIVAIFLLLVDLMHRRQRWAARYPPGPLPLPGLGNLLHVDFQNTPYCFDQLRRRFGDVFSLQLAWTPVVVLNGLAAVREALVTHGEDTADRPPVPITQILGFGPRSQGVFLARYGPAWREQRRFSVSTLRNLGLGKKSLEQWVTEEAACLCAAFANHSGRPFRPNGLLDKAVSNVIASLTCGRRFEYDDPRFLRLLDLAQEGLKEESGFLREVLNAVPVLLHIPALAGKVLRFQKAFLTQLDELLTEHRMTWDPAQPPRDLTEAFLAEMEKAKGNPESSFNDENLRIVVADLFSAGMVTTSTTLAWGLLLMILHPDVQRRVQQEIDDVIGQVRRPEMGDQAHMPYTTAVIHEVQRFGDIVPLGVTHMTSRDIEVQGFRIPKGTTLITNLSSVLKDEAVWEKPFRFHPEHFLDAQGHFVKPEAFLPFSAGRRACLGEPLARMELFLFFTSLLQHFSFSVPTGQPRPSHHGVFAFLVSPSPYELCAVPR

Fc1ccc([C@@H]2CCNC[C@H]2COc2ccc3c(c2)OCO3)cc1 (relative stereo) [paroxetine, trans-(−)-3-(1,3-benzodioxol-5-yloxy)methyl-4-(4-fluorophenyl) piperidine]
patients who achieved and maintained improved ejaculatory control ([1]; Group A overall (36/61): four weeks daily 20 mg followed by conversion to continual maintenance): 59% | mean Frequency Intercourse Times/Week ([1]; Group A-Phase 1: 20 mg acute dose daily for four weeks, 61 men): 2.4 Times/Week | mean ELT ([1]; Group A-Phase 1: 20 mg acute dose daily, at four weeks, 61 men): 4.5 min | patients who regarded their ejaculatory control as significantly improved ([1]; Group A-Phase 1: 20 mg daily for four weeks, 53 of 61 patients): 87% | ELT of patients with improved ejaculatory control ([1]; Group A-Phase 1: 20 mg daily, after four weeks, the 53/61 responders): 5.1 min | mean ELT ([1]; Group A-Phase 1: 20 mg daily, after one week of treatment): 1.1 min | mean ELT ([1]; Group A-Phase 1: 20 mg daily, after two weeks): 1.6 min | mean ELT of patients without improved control ([1]; Group A-Phase 1: 20 mg daily, at four weeks, the 8/61 non-responders): 0.6 min | mean ELT ([1]; Group A-Phase 1: 20 mg daily, at three weeks): 3.5 min | frequency of sexual intercourse acts of patients without improved control ([1]; Group A-Phase 1: 20 mg daily, the 8/61 non-responders): 1.7 times/week | frequency of sexual intercourse acts of patients with improved ejaculatory control ([1]; Group A-Phase 1: 20 mg daily, the 53/61 responders): 2.5 times/week | mean ELT [1, 6]: 3.9 min | mean Frequency Intercourse Times/Week [1, 6]: 2.6 Times/Week | mean ELT of patients who failed to maintain improved control ([1]; Group A-Phase 2: 20 mg continual maintenance, at four weeks, the 16/53 men): 0.6 min | frequency of acts of sexual intercourse/week of patients who failed to maintain improved control ([1]; Group A-Phase 2: 20 mg continual maintenance, the 16/53 men): 2.8 acts of sexual intercourse/week | frequency of acts of sexual intercourse/week of patients who maintained improved control [1, 7]: 2.4 acts of sexual intercourse/week | mean ELT of patients who maintained improved ejaculatory control [1, 7]: 5.5 min | patients who failed to maintain improved ejaculatory control (recurrence of premature ejaculation) ([1]; Group A-Phase 2: after conversion from daily to 20 mg continual maintenance, 16/53): 31% and 32% | patients who maintained improved ejaculatory control ([1]; Group A-Phase 2: four weeks 20 mg continual maintenance after four weeks daily, 36/53): 69% and 68% | mean ELT [1, 8]: 1.5 min | mean Frequency Intercourse Times/Week [1, 8]: 2.2 Times/Week | patients who regarded their ejaculatory control as significantly improved (fraction of patients) ([1]; Group B: solely 20 mg continual maintenance): 14/33 | patients who achieved ejaculatory control ([1]; Group B: solely 20 mg continual maintenance, 14 of 33): 42% | frequency of acts of sexual intercourse/week of patients with improved control [1, 9]: 2.4 acts of sexual intercourse/week | mean ELT of patients with improved ejaculatory control [1, 9]: 2.7 min | frequency of acts of intercourse/week of patients with no change in ejaculatory control [1, 10]: two | mean ELT of patients with no change in ejaculatory control [1, 10]: 0.4 min | mean ELT after treatment ([1]; four weeks initial loading and four weeks continual maintenance): greater than 2.5 minutes | men achieving intra-vaginal ejaculation for the first time ([1]; men with severe lifelong premature ejaculation who had never achieved intra-vaginal ejaculation (including four in Group B)): 10/10 | time to improved ejaculatory control after initiating treatment ([1]; paroxetine oral therapy regimen): 1-2 weeks | mean ELT after treatment ([1]; solely continual maintenance dosage over about four weeks): at least 1.5 minutes | Adverse effects: Total Patients (fraction) [2, 11]: 12/61 | Adverse effects: Total Patients (percent) [2, 11]: 20% | Adverse Effect: Drowsiness (patients) [2, 12]: 1 | Adverse Effect: Inhibited orgasm (patients) [2, 12]: 3 | Adverse effect: Anejaculation (patients) [2, 12]: 5 | Adverse effect: Anorexia (patients) [2, 12]: 1 | Adverse effect: Gastrointestinal upset (patients) [2, 12]: 2 | Adverse effect: Reduced Libido (patients) [2, 12]: 3 | patients with inhibition of orgasm despite achieving ejaculation (percent) ([2]; Group A-Phase 1: acute treatment with 20 mg paroxetine/day, 3/61): 5% | patients with anejaculation (percent) ([2]; Group A-Phase 1: acute treatment with 20 mg paroxetine/day, 5/61): 8% | Adverse effects: Total Patients (fraction) ([2]; Group A-Phase 2: 20 mg continual maintenance after conversion): None and 0/53 | Adverse effects: Total Patients (fraction) ([2]; Group B: 20 mg continual maintenance only): None and 0/33 | Erectile dysfunction ([2]; all patients of Example 1): not reported by any of the patients | patients with anejaculation achieving ejaculation with a reduced dose ([2]; anejaculation on 20 mg/day, reduced dose of 5 mg (n=3) and 10 mg (n=1)): 4/5 | Time to Ejaculate, Mean Time (minutes), Reported By Partner ([3]; 6 mg capsule daily): 2.6 min | Time to Ejaculate, Range (minutes), Reported By Partner ([3]; 6 mg capsule daily): 0.4 to 15 min | Time to Ejaculate, Mean Time (minutes), Reported By Patient ([3]; 6 mg capsule daily, n 25): 2.4 min | Time to Ejaculate, Range (minutes), Reported By Patient ([3]; 6 mg capsule daily, n 25): 0.03 to 16 min | Time to Ejaculate, Mean Time (minutes), Reported By Partner ([3]; 9 mg capsule daily): 2.3 min | Time to Ejaculate, Range (minutes), Reported By Partner ([3]; 9 mg capsule daily): 0.03 to 10 min | Time to Ejaculate, Mean Time (minutes), Reported By Patient ([3]; 9 mg capsule daily, n 25): 2.4 min | Time to Ejaculate, Range (minutes), Reported By Patient ([3]; 9 mg capsule daily, n 25): 0.03 to 12.5 min | Time to Ejaculate, Mean Time (minutes), Reported By Partner ([3]; 12 mg capsule daily): 3.5 min | Time to Ejaculate, Range (minutes), Reported By Partner ([3]; 12 mg capsule daily): 0.12 to 30 min | Time to Ejaculate, Mean Time (minutes), Reported By Patient ([3]; 12 mg capsule daily, n 24): 2.4 min | Time to Ejaculate, Range (minutes), Reported By Patient ([3]; 12 mg capsule daily, n 24): 0.25 to 10 min | Reason for Early Termination: AE (Adverse Experience), patients ([3]; Clinical Site A, 10 enrolled): 0 | Reason for Early Termination: AE (Adverse Experience), patients ([3]; Clinical Site B, 16 enrolled): 3 | Reason for Early Termination: AE (Adverse Experience), patients ([3]; Clinical Site C, 34 enrolled): 1 | Reason for Early Termination: AE (Adverse Experience), patients ([3]; Clinical Site D, 6 enrolled): 1 | Reason for Early Termination: AE (Adverse Experience), patients ([3]; Clinical Site E, 22 enrolled): 1 | Reason for Early Termination: AE (Adverse Experience), patients ([3]; Clinical Site F, 19 enrolled): 2 | Reason for Early Termination: AE (Adverse Experience), patients ([3]; TOTALS of sites A-F, 107 enrolled): 8 | time to steady state systemic levels ([4]; occurring after about): 7 to 14 days | half life ([4]; reportedly): 24 h | time to peak plasma levels ([4]; usually achieved within about): 2 to 8 h | affinity for dopamine receptors (dopamine receptors): little affinity | affinity for central β-adrenergic receptors [5]: little affinity | inhibition of the P450 2D6 enzyme (P450 2D6 enzyme): potent inhibitor
